The numbers were not newly measured in US20080021074A1, “Pharmaceutical Compositions and Related Methods of Treatment” (QUESTCOR PHARMACEUTICALS, INC., priority 2006, published 2008), which cites them from elsewhere.

The subject of data set [1] is CYP1A2. The note with it: primary human hepatocyte cultures, concentration-dependent.
Data set [2] deals with monkeys. The following applies: single administration.
In data set [3] the test system is CYP3A4. The following applies: primary human hepatocyte cultures, concentration-dependent.
Data set [4] relates to CYP2B6. The note with it: primary human hepatocyte cultures, concentration-dependent.
Data set [5] concerns mice. The following applies: single administration.
Data set [6] addresses CYP2C19 (Homo sapiens, UniProt P33261).
The conditions of data set [7]: tizanidine and baclofen combined.
The target of data set [8] is CYP1A2 (Homo sapiens, UniProt P05177). The note with it: in vitro.
Sequence of CYP1A2 (Homo sapiens, UniProt P05177) (P05177 whole entry): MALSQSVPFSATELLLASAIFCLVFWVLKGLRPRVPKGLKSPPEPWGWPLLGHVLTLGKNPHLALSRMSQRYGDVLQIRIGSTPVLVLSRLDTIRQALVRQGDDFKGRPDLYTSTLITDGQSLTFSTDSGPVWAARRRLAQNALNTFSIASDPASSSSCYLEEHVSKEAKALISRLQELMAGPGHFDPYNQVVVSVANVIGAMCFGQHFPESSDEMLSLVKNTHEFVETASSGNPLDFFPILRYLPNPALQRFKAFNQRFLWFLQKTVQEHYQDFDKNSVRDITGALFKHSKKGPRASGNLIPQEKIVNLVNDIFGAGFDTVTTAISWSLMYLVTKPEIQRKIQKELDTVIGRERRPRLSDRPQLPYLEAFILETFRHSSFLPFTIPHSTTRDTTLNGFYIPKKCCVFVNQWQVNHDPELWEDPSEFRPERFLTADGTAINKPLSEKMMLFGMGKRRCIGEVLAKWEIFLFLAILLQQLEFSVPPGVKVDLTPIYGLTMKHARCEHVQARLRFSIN
Data set [9] concerns spasticity. The note with it: clinical studies.

Structures can show the parent of a compound that is named as a salt.

Sequence of CYP2C19 (P33261 whole entry): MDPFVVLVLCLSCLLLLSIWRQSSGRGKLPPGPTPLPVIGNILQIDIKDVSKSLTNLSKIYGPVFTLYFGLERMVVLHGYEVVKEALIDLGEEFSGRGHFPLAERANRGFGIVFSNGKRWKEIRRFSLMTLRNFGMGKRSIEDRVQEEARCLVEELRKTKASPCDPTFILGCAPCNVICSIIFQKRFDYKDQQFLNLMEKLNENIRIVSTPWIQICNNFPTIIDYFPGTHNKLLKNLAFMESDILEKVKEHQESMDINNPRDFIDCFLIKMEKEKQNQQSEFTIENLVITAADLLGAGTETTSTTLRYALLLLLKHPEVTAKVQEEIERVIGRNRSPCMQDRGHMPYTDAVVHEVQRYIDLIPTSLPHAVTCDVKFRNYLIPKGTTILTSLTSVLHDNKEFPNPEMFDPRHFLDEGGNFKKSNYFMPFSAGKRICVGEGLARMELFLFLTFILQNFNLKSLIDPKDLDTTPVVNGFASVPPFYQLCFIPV

For the compound `NC(=O)C[S+]([O-])C(c1ccccc1)c1ccccc1` (stereo not drawn) [Modafinil, 2-[(diphenylmethyl)sulfinyl]acetamide], the “induction of CYP1A2” value in data set [1] was “slightly induce”. The nocturnal activity entry in data set [2] is reported as “increased nocturnal activity”. The “induction of CYP3A4” value in [3] is on record as “slightly induce”. Moreover, the “induction of CYP2B6” value in [4] is “slightly induce”. In addition, the locomotor activity entry in data set [5] was “increased locomotor activity”. Moreover, in data set [6], the “inhibition of CYP2C19” value is on record as “reversible inhibitors”.
For `Clc1ccc2nsnc2c1NC1=NCCN1` [Tizanidine, 5-chloro-4-(2-imidazolin-2-ylamino)-2,1,3-benzothiodiazole hydrochloride], in [7], the pharmacokinetic interaction result is on record as “without significant pharmacokinetic interaction”. Moreover, the metabolizing enzyme entry in data set [8] was “metabolized by CYP1A2”. In data set [9], the “antispastic effect compared with diazepam and baclofen” value was “as effective as other antispastic agents”. Also, the “tolerability compared with diazepam and baclofen” value in data set [9] (especially incidence of debilitating muscle weakness) is “more favorable tolerability profile”.
Take `NCC(CC(=O)O)c1ccc(Cl)cc1` (stereo not drawn) [baclofen, 4-amino-3-(4-chlorophenyl)-butanoic acid]: the pharmacokinetic interaction result in data set [7] is “without significant pharmacokinetic interaction”.
As for `NC(=O)CS(=O)(=O)C(c1ccccc1)c1ccccc1` [modafinil sulfone], the “inhibition of CYP2C19” value in data set [6] is reported as “reversible inhibitors”.
